According to publication PMC3706801 (Alzheimer's Research & Therapy, 2013):

Columns and labels:
[1] = test system: NT2/D1 cells; assay: Curcuminoid binding to NT2/D1 cells
Procedure: NT2/D1 cells were grown in 25 cm^2 flasks to a density of about 90% confluence (6 to 8 × 10^6 cells) with 6 ml of Dulbecco's Minimal Essential Medium (DMEM) containing 5% fetal calf serum (FCS). […] The remaining volume consisted of varying ratios of DMEM and mouse serum to generate dose curves with constant curcuminoid and variable serum concentrations. […] Cells were then washed three times in the flasks with 5 mL of 0.9% saline and then scraped into 1 ml of the same solution. The cell suspension was centrifuged at 3,000 × g for one minute and the supernatant removed. The cell pellet was resuspended in 1 ml of 0.6% saline and re-centrifuged. The final pellet was suspended in 0.4 ml of 0.6% saline and mixed with 0.8 ml of acetone. All samples were stored at -20°C for 2 to 16 h and processed for reversed phase chromatography as described above for tissue preparation.

[2] = parameters: method as in PMID 17340565; conditions: i.v. 10 mg/kg in DMA/PEG/dextrose, rats; read-out: initial plasma concentrations; cited from earlier work
[3] = cited from earlier work
[4] = parameters: method as in PMID 18417733; conditions: intramuscular 3 mg/kg, four hours after injection; cited from earlier work
[5] = HP-γ-CD-solubilized, dose curve ~50% BMAX, Figure 9B left
[6] = HP-γ-CD-solubilized, saturating (100% BMAX), 300 μM, no serum, Figure 9B middle
[7] = HP-γ-CD-solubilized, serum competition, 95% serum, Figure 9B right
[8] = mouse serum-solubilized, dose curve ~50% BMAX, Figure 9A left
[9] = mouse serum-solubilized, saturating (100% BMAX), 200 μM, 5% serum, Figure 9A middle
[10] = mouse serum-solubilized, serum competition, 100% serum, Figure 9A right

| Compound | relative contribution to cell-bound curcuminoids (percentage of the total) [1, 5] | relative contribution to cell-bound curcuminoids (percentage of the total) [1, 6] | relative contribution to cell-bound curcuminoids (percentage of the total) [1, 7] | relative contribution to cell-bound curcuminoids (percentage of the total) [1, 8] | relative contribution to cell-bound curcuminoids (percentage of the total) [1, 9] | relative contribution to cell-bound curcuminoids (percentage of the total) [1, 10] | C0 [2] | plasma levels after oral administration [3] | brain levels [4] |
| --- | --- | --- | --- | --- | --- | --- | --- | --- | --- |
| COc1cc(/C=C/C(O)=C/C(=O)/C=C/c2ccc(O)cc2)ccc1O [DMC, demethoxycurcumin] | 23% | 24% | 19% | 24% | 24% | 20% |  |  |  |
| curcumin | 42% | 28% | 55% | 49% | 61% | 65% | ~27 µM | ≤ 1 µM | approximately 3.2 nmol/g |
| bisdemethoxycurcumin [BDMC] | 35% | 48% | 26% | 27% | 15% | 15% |  |  |  |
